# Columns and labels:
# [1] = test system: M 5076 cells (mouse ovarian sarcoma cells); experiment: M 5076 liver metastatic models (survival); type: in vivo; conditions: for Prolongation rate of survival (%) / Survival days: BDF1 male mice; for Prolongation rate of survival (%): vs control; for Survival days: observed 120 days
# Protocol: Experiment 1 (M 5076 Liver Metastatic Models)
# One million of M 5076 cells (mouse ovarian sarcoma cells) were implanted into BDF1 male mice (5-weeks old, 8 animals per group) at the tail vein. […] In the control group (untreated with test compound), only a physiological saline solution was administered. The survival time (days) was measured in both the test compound-treated groups and the control group, and the prolongation rate of survival was calculated according to the following equation.
# [2] = test system: HT-29 cells (human colon cancer); experiment: HT-29 metastatic models, dosing from day 15 (Experiment 2); type: in vivo, mouse; conditions: 10 animals, checked day 84; for Other organs MI (Metastatic Incidence): Diaphragm, Abdominal cavity, Thoracic cavity; for Liver MI (Metastatic Incidence) / Lung MI (Metastatic Incidence) / Lymph node MI (Metastatic Incidence) / Number of animals with metastasis: NCr nu/nu mice
# Protocol: A test compound (Compound A; the compound obtained in Preparation 1 as mentioned below, Compound B; the compound obtained in Preparation 4 as mentioned below, and Irinotechan (CPT-11)) was dissolved in a physiological saline solution, and each amount as indicated in Table 2 as mentioned below was administered intravenously to the mice on the 15th, 19th, 23rd and 25th day after the implantation of tumor. On the other hand, in the control group (untreated with test compound), only a physiological saline solution was administered. The presence or absence of the metastasis of each organ was checked on the 84th day after the implantation of tumor.
# [3] = test system: HT-29 cells (human colon cancer); experiment: HT-29 metastatic models, dosing after lymph node metastasis observed (Experiment 3); type: in vivo; conditions: 10 animals, checked day 84; for Other organs MI (Metastatic Incidence): Diaphragm, Abdominal cavity, Thoracic cavity; for Liver MI (Metastatic Incidence) / Lung MI (Metastatic Incidence) / Lymph node MI (Metastatic Incidence) / Number of animals with metastasis: NCr nu/nu mice
# Protocol: Experiment 3 (HT-29 Metastatic Models)
# A segment (2 mm^2) of HT-29 cells (human colon cancer) was implanted into the vermiform appendix of 100 NCr nu/nu female mice (5 to 6 weeks old, 10 animals per group). Since the lymph node metastasis was observed on the 49th day after the implantation of tumor, a test compound (Compound A; the compound obtained in Preparation 1 as mentioned below, and Irinotechan (CPT-11)) was dissolved in a physiological saline solution, and each amount as indicated in Table 3 as mentioned below was administered intravenously to the mice on the 51st, 55th, 59th, and 63rd day after the implantation of tumor. On the other hand, in the control group (untreated with test compound), only a physiological saline solution was administered. The presence or absence of the metastasis of each organ was checked on the 84th day after the implantation of tumor.
# [4] = test system: H460 cells (human lung cancer); experiment: H460 metastatic models (Experiment 4); type: in vivo, mouse xenograft; set-up: key to Lymph node MI (Metastatic Incidence) / Liver MI (Metastatic Incidence) / Lung MI (Metastatic Incidence): number of animals with metastasis in the organ (out of 10); conditions: NCr nu/nu mice, 10 animals, checked day 36
# Protocol: Experiment 4 (H460 Metastatic Models)
# A segment (2 mm^2) of H460 cells (human lung cancer) was implanted into the left lung of 100 NCr nu/nu female mice (5 to 6 weeks old, 10 animals per group). […] On the other hand, in the control group (untreated with test compound), only a physiological saline solution was administered. The presence or absence of the metastasis of each organ was checked on the 36th day after the implantation of tumor.
# [5] = 20 mg/kg i.v. days 15, 19, 23, 25
# [6] = 40 mg/kg i.v. days 15, 19, 23, 25
# [7] = 40 mg/kg i.v. days 51, 55, 59, 63
# [8] = 40 mg/kg i.v. days 14, 18, 22, 26
# [9] = 80 mg/kg i.v. days 14, 18, 22, 26
# [10] = 5 mg/kg i.v. days 15, 19, 23, 25
# [11] = 10 mg/kg i.v. days 15, 19, 23, 25
# [12] = 20 mg/kg i.v. days 51, 55, 59, 63
# [13] = 5 mg/kg i.v. days 14, 18, 22, 26
# [14] = 10 mg/kg i.v. days 14, 18, 22, 26
# [15] = 20 mg/kg i.v. days 14, 18, 22, 26
# [16] = 2.5 mg/kg i.v. days 15, 19, 23, 25
# [17] = 2.5 mg/kg i.v. days 14, 18, 22, 26
molecule,measurement,setting,value
"CCc1c2c(nc3ccc(OC(=O)N4CCC(N5CCCCC5)CC4)cc13)-c1cc3c(c(=O)n1C2)COC(=O)[C@]3(O)CC [Irinotecan, reference compound]",Prolongation rate of survival (%),"[1]; 80 mg/kg i.v. on days 4, 8, 12",50.0%
same,Survival days,"[1]; 80 mg/kg i.v. on days 4, 8, 12 after implantation",22.50 days
same,Other organs MI (Metastatic Incidence),[2]; [5],0
same,Other organs MI (Metastatic Incidence),[2]; [6],1
same,Liver MI (Metastatic Incidence),[2]; [5],2
same,Lung MI (Metastatic Incidence),[2]; [5],2
same,Lymph node MI (Metastatic Incidence),[2]; [5],9
same,Number of animals with metastasis,[2]; [5],9
same,Liver MI (Metastatic Incidence),[2]; [6],0
same,Lung MI (Metastatic Incidence),[2]; [6],1
same,Lymph node MI (Metastatic Incidence),[2]; [6],7
same,Number of animals with metastasis,[2]; [6],7
same,Other organs MI (Metastatic Incidence),[3]; [7],1
same,Liver MI (Metastatic Incidence),[3]; [7],1
same,Lung MI (Metastatic Incidence),[3]; [7],0
same,Lymph node MI (Metastatic Incidence),[3]; [7],8
same,Number of animals with metastasis,[3]; [7],8
same,Liver MI (Metastatic Incidence),[4]; [8],0
same,Lung MI (Metastatic Incidence),[4]; [8],1
same,Lymph node MI (Metastatic Incidence),[4]; [8],0
same,Number of animals with metastasis,[4]; [8],1
same,Liver MI (Metastatic Incidence),[4]; [9],0
same,Lung MI (Metastatic Incidence),[4]; [9],0
same,Lymph node MI (Metastatic Incidence),[4]; [9],2
same,Number of animals with metastasis,[4]; [9],2
CM-dextran-7-ethyl-10-[3′-(glycyl-glycyl-glycylamino)propyloxy]-(20S)-camptothecin [Compound A],Prolongation rate of survival (%),"[1]; 12.5 mg/kg i.v. on days 4, 8, 12",150.5%
same,Survival days,"[1]; 12.5 mg/kg i.v. on days 4, 8, 12 after implantation",37.57 days
same,Prolongation rate of survival (%),"[1]; 25 mg/kg i.v. on days 4, 8, 12",187.5%
same,Survival days,"[1]; 25 mg/kg i.v. on days 4, 8, 12 after implantation",43.13 days
same,Prolongation rate of survival (%),"[1]; 50 mg/kg i.v. on days 4, 8, 12",224.8%
same,Survival days,"[1]; 50 mg/kg i.v. on days 4, 8, 12 after implantation",48.71 days
same,activity of prolonging lifetime,"[1]; M5076 liver metastatic models, summary in words",excellent activity of prolonging lifetime
same,Other organs MI (Metastatic Incidence),[2]; [10],2
same,Other organs MI (Metastatic Incidence),[2]; [11],0
same,Other organs MI (Metastatic Incidence),[2]; [5],0
same,Other organs MI (Metastatic Incidence),[2]; [6],0
same,Liver MI (Metastatic Incidence),[2]; [10],0
same,Lung MI (Metastatic Incidence),[2]; [10],1
same,Lymph node MI (Metastatic Incidence),[2]; [10],6
same,Number of animals with metastasis,[2]; [10],6
same,Liver MI (Metastatic Incidence),[2]; [11],0
same,Lung MI (Metastatic Incidence),[2]; [11],2
same,Lymph node MI (Metastatic Incidence),[2]; [11],8
same,Number of animals with metastasis,[2]; [11],8
same,Liver MI (Metastatic Incidence),[2]; [5],0
same,Lung MI (Metastatic Incidence),[2]; [5],1
same,Lymph node MI (Metastatic Incidence),[2]; [5],1
same,Number of animals with metastasis,[2]; [5],2
same,Liver MI (Metastatic Incidence),[2]; [6],0
same,Lung MI (Metastatic Incidence),[2]; [6],0
same,Lymph node MI (Metastatic Incidence),[2]; [6],0
same,Number of animals with metastasis,[2]; [6],0
same,Other organs MI (Metastatic Incidence),[3]; [12],1
same,Other organs MI (Metastatic Incidence),[3]; [7],2
same,Liver MI (Metastatic Incidence),[3]; [12],0
same,Lung MI (Metastatic Incidence),[3]; [12],0
same,Lymph node MI (Metastatic Incidence),[3]; [12],2
same,Number of animals with metastasis,[3]; [12],3
same,Liver MI (Metastatic Incidence),[3]; [7],0
same,Lung MI (Metastatic Incidence),[3]; [7],0
same,Lymph node MI (Metastatic Incidence),[3]; [7],0
same,Number of animals with metastasis,[3]; [7],2
same,Liver MI (Metastatic Incidence),[4]; [13],0
same,Lung MI (Metastatic Incidence),[4]; [13],1
same,Lymph node MI (Metastatic Incidence),[4]; [13],2
same,Number of animals with metastasis,[4]; [13],2
same,Liver MI (Metastatic Incidence),[4]; [14],0
same,Lung MI (Metastatic Incidence),[4]; [14],0
same,Lymph node MI (Metastatic Incidence),[4]; [14],1
same,Number of animals with metastasis,[4]; [14],1
same,Liver MI (Metastatic Incidence),[4]; [15],0
same,Lung MI (Metastatic Incidence),[4]; [15],2
same,Lymph node MI (Metastatic Incidence),[4]; [15],2
same,Number of animals with metastasis,[4]; [15],3
same,Liver MI (Metastatic Incidence),[4]; [8],0
same,Lung MI (Metastatic Incidence),[4]; [8],0
same,Lymph node MI (Metastatic Incidence),[4]; [8],1
same,Number of animals with metastasis,[4]; [8],1
"carboxymethyldextran-polyalcohol-(1S,9S)-1-(glycyl-glycyl-L-phenylalanyl-glycylamino)-9-ethyl-5-fluoro-2,3-dihydro-9-hydroxy-4-methyl-1H,12H-benzo[de]pyrano[3′,4′:6,7] indolizino[1,2-b]quinoline-10,13(9H,15H)-dione [Compound B]",Other organs MI (Metastatic Incidence),[2]; [16],1
same,Other organs MI (Metastatic Incidence),[2]; [10],0
same,Liver MI (Metastatic Incidence),[2]; [16],1
same,Lung MI (Metastatic Incidence),[2]; [16],1
same,Lymph node MI (Metastatic Incidence),[2]; [16],6
same,Number of animals with metastasis,[2]; [16],6
same,Liver MI (Metastatic Incidence),[2]; [10],0
same,Lung MI (Metastatic Incidence),[2]; [10],0
same,Lymph node MI (Metastatic Incidence),[2]; [10],0
same,Number of animals with metastasis,[2]; [10],0
same,Liver MI (Metastatic Incidence),[4]; [17],0
same,Lung MI (Metastatic Incidence),[4]; [17],0
same,Lymph node MI (Metastatic Incidence),[4]; [17],1
same,Number of animals with metastasis,[4]; [17],1
same,Liver MI (Metastatic Incidence),[4]; [13],0
same,Lung MI (Metastatic Incidence),[4]; [13],1
same,Lymph node MI (Metastatic Incidence),[4]; [13],2
same,Number of animals with metastasis,[4]; [13],2
